Consider 14 compounds from PubChem BioAssay (NCI).

Test systems include OVCAR-3 ovarian; SR leukemia; HOP-92 NSCLC; MDA-N; HL-60(TB) leukemia; COLO 205 colon; A549 NSCLC; HCC-2998 colon; UO-31 renal; CAKI-1 renal.
Holding throughout (experiment): NCI tumour cell line growth inhibition, 48 h

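Following 48 hours of exposure in 96-well plates, responses at five concentrations were used to interpolate endpoints linearly. TGI: concentration producing complete growth inhibition.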

On to `CC1OC(OC2C(OC(=O)[C@]34CCC(C)(C)C[C@H]3C3=CC[C@@H]5[C@@]6(C)CC[C@H](OC7OC(C(=O)O)C(O)C(O)C7O)C(C)(C)[C@@H]6CC[C@@]5(C)[C@]3(C)C[C@H]4O)OCC(O)C2O)C(O)C(OC2OCC(O)(CO)C2O)C1OC1OCC(O)C(O)C1O` (some centres not stated), for which the TGI in the test with OVCAR-3 ovarian amounted to 27.4 µM; in the test on SR leukemia, 18.9 µM; in the test on HOP-92 NSCLC, 26.7 µM; in the test with MDA-N, 16 µM; with HL-60(TB) leukemia, 11.4 µM; in the test with COLO 205 colon, 3.36 µM. Also, the TGI with A549 NSCLC was 14.8 µM; in the test on HCC-2998 colon, 3.32 µM; in the test on UO-31 renal it was 8.42 µM; in the test with CAKI-1 renal, 20 µM.

On to `CCOC(=O)Cn1c(=O)c2nc(SC)sc2n(-c2ccccc2)c1=O`, for which the TGI in the test with SR leukemia, in the test on HOP-92 NSCLC, with MDA-N, in the test with HL-60(TB) leukemia, with COLO 205 colon and in the test with A549 NSCLC was more than 100 µM in each case. In addition, the TGI in the test with HCC-2998 colon and in the test on UO-31 renal was more than 100 µM in each case.

Regarding `CCOC(=O)c1nc2c(nc1C(=O)OCC)C(=O)c1ccccc1C2=O`, the TGI worked out at 2.81 µM with OVCAR-3 ovarian; 0.68 µM in the test with SR leukemia; 33.6 µM with HOP-92 NSCLC; 0.796 µM in the test with MDA-N; 1.55 µM in the test with HL-60(TB) leukemia; 4.36 µM in the test on COLO 205 colon. For the same compound, the TGI with A549 NSCLC worked out at 9.47 µM; in the test with HCC-2998 colon it was 2.97 µM; in the test on UO-31 renal it was 1.18 µM; with CAKI-1 renal it was 3.26 µM.

As for `Cc1ccc2c(c1)C(=O)C1(Cc3ccccc3C1=O)C2` (configuration not stated), the TGI in the test on OVCAR-3 ovarian, with SR leukemia, in the test with HOP-92 NSCLC, with MDA-N, in the test on HL-60(TB) leukemia and in the test on COLO 205 colon was more than 100 µM throughout. The TGI in the test with A549 NSCLC is more than 100 µM; in the test on HCC-2998 colon, more than 100 µM; in the test on UO-31 renal, 39 µM.

Regarding `Cc1c(S(=O)(=O)c2ccccc2)c(N)n(CCN(C)C)c1C`, the TGI in the test on OVCAR-3 ovarian, in the test with SR leukemia, in the test with HOP-92 NSCLC, in the test with MDA-N, with HL-60(TB) leukemia and in the test on COLO 205 colon was more than 100 µM throughout. Moreover, the TGI with A549 NSCLC, in the test on HCC-2998 colon, in the test on UO-31 renal and with CAKI-1 renal was more than 100 µM in each case.

In the case of `O=c1c2sc(=S)n(-c3ccc(F)cc3)c2ncn1/N=C/c1ccc(F)cc1F`, the TGI was 61.5 µM in the test on OVCAR-3 ovarian; more than 100 µM with SR leukemia; 44 µM in the test on HOP-92 NSCLC; more than 100 µM in the test with MDA-N; more than 100 µM with HL-60(TB) leukemia; more than 100 µM with COLO 205 colon. The TGI was more than 100 µM in the test on A549 NSCLC, more than 100 µM in the test with HCC-2998 colon, 89.8 µM in the test with UO-31 renal and 32.9 µM with CAKI-1 renal.

Turning to `CS(=O)c1ncc2c(n1)-c1ccccc1OC2` (configuration not stated), the TGI in the test with OVCAR-3 ovarian, in the test with SR leukemia, in the test on HOP-92 NSCLC, in the test on MDA-N, with HL-60(TB) leukemia and in the test on COLO 205 colon was more than 100 µM throughout. In addition, the TGI with A549 NSCLC, in the test on HCC-2998 colon, in the test with UO-31 renal and with CAKI-1 renal was more than 100 µM in each case.

On to `COc1cccc2c1OC1(C=C2)Oc2ccccc2C(=O)N1C` (configuration not stated), for which the TGI was more than 100 µM with OVCAR-3 ovarian; 54.2 µM with SR leukemia; 98.2 µM in the test with HOP-92 NSCLC; 44.9 µM in the test on MDA-N; 75.9 µM in the test on HL-60(TB) leukemia; more than 100 µM in the test with COLO 205 colon. Further, the TGI with A549 NSCLC is more than 100 µM; in the test on HCC-2998 colon, 77.8 µM; in the test on UO-31 renal, more than 100 µM; in the test with CAKI-1 renal, more than 100 µM.

Consider `O=[N+]([O-])c1ccc(Oc2c(Cl)cc(S(=O)(=O)/N=C(\NO)Nc3ccc(Cl)cc3)cc2Cl)cc1`, for which the TGI in the test with OVCAR-3 ovarian came to 19.4 µM; with SR leukemia, 17.2 µM; in the test on HOP-92 NSCLC, 11.1 µM; in the test with MDA-N, 24.8 µM; in the test with HL-60(TB) leukemia it was 13.7 µM; in the test with COLO 205 colon, 29.9 µM. Also, the TGI in the test on A549 NSCLC is 27.8 µM; with HCC-2998 colon it was 13.1 µM; with UO-31 renal, 19.2 µM; in the test on CAKI-1 renal, 18.9 µM.

With `CN1CSC(=S)N(c2c3ccccc3nc3ccc(Br)cc23)C1`, the TGI was 33.3 µM in the test with OVCAR-3 ovarian; 12.6 µM with SR leukemia; 32.7 µM with HOP-92 NSCLC; 25.3 µM with MDA-N; 27.2 µM in the test with HL-60(TB) leukemia; 20 µM in the test on COLO 205 colon. Besides, the TGI in the test with A549 NSCLC was determined as 21.6 µM; with HCC-2998 colon, 8.3 µM; in the test with UO-31 renal, 22.4 µM; in the test with CAKI-1 renal, 24 µM.

As to `O=C(O)c1ccccc1CC1Cc2ccccc2C1=O` (configuration not stated), the TGI in the test on OVCAR-3 ovarian, in the test on SR leukemia, with HOP-92 NSCLC, with MDA-N, in the test on HL-60(TB) leukemia and in the test with COLO 205 colon was more than 100 µM each time. Also, the TGI in the test on A549 NSCLC, in the test with HCC-2998 colon, in the test on UO-31 renal and in the test on CAKI-1 renal was more than 100 µM throughout.

In the case of `CCCCCCOc1ccc(C(=O)NOC)cc1`, the TGI was more than 100 µM in the test on OVCAR-3 ovarian; more than 100 µM in the test with SR leukemia; more than 100 µM in the test on HOP-92 NSCLC; more than 100 µM with MDA-N; 86.8 µM with HL-60(TB) leukemia; more than 100 µM with COLO 205 colon. For the same compound, the TGI with A549 NSCLC, with HCC-2998 colon, with UO-31 renal and in the test with CAKI-1 renal was more than 100 µM in each case.

Regarding `NS(=O)(=O)c1cc(Cl)c(NC(=S)NC(=O)Nc2ccc(Cl)c(Cl)c2)c(Cl)c1`, the TGI was more than 100 µM in the test with OVCAR-3 ovarian; more than 100 µM in the test with SR leukemia; more than 100 µM with HOP-92 NSCLC; more than 100 µM in the test on MDA-N; 68.4 µM in the test on HL-60(TB) leukemia; 33.6 µM with COLO 205 colon. Besides, the TGI with A549 NSCLC, in the test with HCC-2998 colon, with UO-31 renal and in the test with CAKI-1 renal was more than 100 µM throughout.

For the compound `Cc1cn(C2CC(O)C(CO)O2)c(=O)[nH]c1=O` (configuration not stated), the TGI in the test with OVCAR-3 ovarian is more than 2650 µM; with SR leukemia it was more than 5000 µM; in the test on HOP-92 NSCLC, more than 4830 µM; in the test on MDA-N, more than 5000 µM; with HL-60(TB) leukemia it was more than 5000 µM; with COLO 205 colon it was more than 5000 µM. In addition, the TGI in the test on A549 NSCLC is 4450 µM; in the test with HCC-2998 colon it was more than 5000 µM; in the test with UO-31 renal, more than 5000 µM; in the test on CAKI-1 renal, 4450 µM.
